{"source": "patent US5736529A", "about": "“Use of NAD-related compounds in the treatment of neural trauma to inhibit neurodegeneration” (priority 1996, dated 1998)", "key": {"xanthine oxidase": {"tested_on": "xanthine oxidase", "settings": "previous studies; cited from earlier work"}, "[1]": {"tested_on": "dopaminergic neurons in the midbrain", "assay": "Apoptosis in MPTP treated mice (In Situ Apoptosis Detection Kit, tyrosine hydroxylase staining)", "type": "in vivo, mouse (C57BL/6)", "settings": "MPTP 25 mg/kg ip twice; 48 hours", "procedure": "After 48 hours the mice were perfused through the left ventricle with phosphate buffered saline (PBS) and then with 4% formaldehyde and 0.2% glutaraldehyde in PBS. The brains were coronally sliced into 50μ sections in a vibrating microtome.\nTo detect individual cells undergoing apoptosis, the In Situ Apoptosis Detection Kit (Oncor) was used. In this method, the fragmented DNA ends are extended with digoxigenin-dUTP. An anti-digoxigenin antibody then binds to the extension and is detected by a peroxidase reaction as previously described.\nTyrosine hydroxylase staining was done to identify dopaminergic neurons in the substantia nigra. The IgG polyclonal antibodies used were: a rabbit antibody to tyrosine hydroxylase; a sheep antibody to rabbit IgG and a rabbit antibody to horseradish peroxidase with the horseradish peroxidase coupled to the antibody^22. The tyrosine hydroxylase-stained brain slices were mounted on glass slides, dehydrated and coverslipped with balsam."}, "[2]": {"tested_on": "DNA in midbrain and striatum of C57BL/6 mice", "assay": "Fluorimetric assay of DNA fragmentation in MPTP treated mice (Table 7)", "type": "in vivo, mouse (C57BL/6)", "settings": "for DNA damage, MIDBRAIN: MPTP 25 mg/kg ip twice, mean ± S.D.", "description": "A fifth group was the control. Brains were removed and the midbrain and striatum isolated."}, "[3]": {"tested_on": "superoxide radicals produced by xanthine oxidase", "assay": "Quenching of superoxide radicals (EPR)", "settings": "0.1M nicotinamide", "method": "(§1) EPR spectra were measured at 23° and 100 kHz in a Bruker model ECS 106 spectrometer (Bruker, Karlsruhe, Germany). The EPR conditions were: modulation amplitude 0.483G, microwave power 20 mW and time constant 1.3 seconds."}, "[4]": {"tested_on": "hydroxyl radicals generated by the addition of 0.4M hydrogen peroxide", "assay": "Quenching of hydroxyl radicals (EPR)", "settings": "0.1M nicotinamide", "method": "as §1"}, "24 month old mice": {"tested_on": "24 month old mice", "settings": "mouse, in vivo, 500 mg/kg"}, "[5]": {"tested_on": "poly(ADP-ribose) polymerase (PADPRP)", "settings": "cited from earlier work"}, "ATP": {"tested_on": "ATP", "settings": "known effect of nicotinamide; cited from earlier work"}}, "note": "“Also recorded” adds a separate entry of the source.", "data": [{"molecule": "C[n+]1ccc(-c2ccccc2)cc1", "note": "[MPP+]", "values": [{"measurement": "substrate for xanthine oxidase", "setting": "xanthine oxidase", "result": "can act as a substrate for xanthine oxidase"}]}, {"molecule": "CN1CC=C(c2ccccc2)CC1", "note": "[MPTP, 1-methyl-4-phenyl-1,2,3,6-tetrahydropyridine]", "values": [{"measurement": "apoptotic cells in dopaminergic neurons in the midbrain", "setting": "[1]", "result": "Apoptotic cells with shrunken and fragmented nuclei were detected"}, {"measurement": "DNA fragmentation in the midbrain", "setting": "[2]; 25 mg/kg MPTP twice, 48 hours, p<0.05", "result": "Significant DNA fragmentation"}, {"measurement": "DNA damage, MIDBRAIN", "setting": "[2]; 2 hours", "result": "0.9108 ± 0.2233 per gram of tissue"}, {"measurement": "DNA damage, MIDBRAIN", "setting": "[2]; 48 hours, * p<0.05 vs control", "result": "1.6373 ± 0.4567 per gram of tissue"}]}, {"molecule": "NC(=O)c1cccnc1", "note": "[nicotinamide]", "values": [{"measurement": "quenching of superoxide radicals", "setting": "[3]", "result": "able to quench superoxide radicals"}, {"measurement": "quenching of hydroxyl radicals", "setting": "[4]", "result": "able to quench hydroxyl radicals"}, {"measurement": "deaths", "setting": "24 month old mice", "result": "one out of six"}, {"measurement": "inhibition of poly(ADP-ribose) polymerase", "setting": "[5]", "result": "inhibits poly(ADP-ribose) polymerase; also recorded: weak inhibitor"}, {"measurement": "ATP levels", "setting": "ATP", "result": "elevate NAD levels and ATP levels"}]}]}
